This is an account of results in publication PMC2714474, “Extreme variability in the formation of chlorpyrifos oxon (CPO) in patients poisoned by chlorpyrifos (CPF)” (Biochemical Pharmacology, 2009).

pKd: −log10 of the molar value.

Series [1] deals with CYP2B6. The note with it: read-out: Km of CPF desulfuration; human hepatic CYP2B6; cited from earlier work.
Series [2] concerns the target butyrylcholinesterase (BChE; EC 3.1.1.8) (Homo sapiens, UniProt P06276). Briefly: BChE activity in plasma of CPF-poisoned patients. The format is in vivo. The note with it: one patient, 70 min after CPF ingestion. On the procedure: (§1) Laboratory analyses were conducted in Munich, Germany. AChE activity was determined in native RBCs (AChE in vivo) and after reactivation with supra-therapeutic obidoxime (AChE in vitro) to estimate the reactivatable fraction. These assays were performed using a modified Ellman assay as described. BChE activity and inhibitory activity of plasma were assessed as reported. In short, inhibitory activity of patient plasma was tested by incubating 3 volumes of hemolysate (3 g Hb/100 mL 0.1 M phosphate buffer, pH 7.4; washed red blood cells from a healthy donor) with 1 volume of patient plasma at 37 °C for 60 min.

The target of series [3] is T1, RBC acetylcholinesterase (AChE; EC 3.1.1.7) (Homo sapiens, UniProt P22303).
T1 construct: from tissue; host or cells: red blood cells (diluted whole blood) of chlorpyrifos-poisoned patients
Briefly: RBC-AChE activity in CPF-poisoned patients (modified Ellman assay). The class given is in vivo. On the procedure:
as §1
(In general: DTNB colorimetry detects thiols as they appear.)

In series [4] the test system is CYP3A4. The settings on record: read-out: Km of CPF desulfuration; human hepatic CYP3A4; cited from earlier work.
Series [5] in a line: Plasma CPF concentration in CPF-poisoned patients (HPLC).
Method: (§2) Serial blood samples stem from patients with acute chlorpyrifos poisoning who were enrolled in two randomised controlled studies (RCT1: ISRCTN02920054 and RCT2: ISRCTN55264358). The studies were performed in Sri Lankan hospitals in Anuradhapura and Polonnaruwa aimed at evaluating the efficacy of oral superactivated charcoal (RCT 1) or pralidoxime (RCT 2) in symptomatic organophosphorus pesticide poisoning. Additional patients were recruited in a prospective cohort study in Nuwara Eliya that was assessing changes in neuromuscular junctional function in organophosphorus pesticide poisoning. […] Treatment consisted of fluid resuscitation and atropine as described [15] and pralidoxime chloride 1 g every 6 for 48 h (RCT1 and Nuwara Eliya cohort), although there was no strict adherence to this regimen. Patients in RCT2 were randomised to receive pralidoxime (2 g pralidoxime chloride loading dose over 20 min, then 0.5 g/h until a maximum of 7 days) or an equal volume of normal saline in addition to the supportive therapy mentioned above. The blood samples were collected between 25 May 2004 and 18 October 2006.
(§3) Blood samples were collected into tubes containing EDTA prior to pralidoxime, then at 1, 4, 12, and 24 h after administration, then once daily until discharge or death. A 0.2 mL blood sample was diluted at the bedside immediately after collection with 4 mL of ice-cold saline and frozen to −23 °C until analysis of AChE activity. The remaining sample was promptly centrifuged and the aspirated plasma frozen at −23 °C until analysis of BChE activity, inhibitory activity, and the concentration of CPF and CPO [15].
CPF was determined by reversed phase HPLC with detection at 288 nm. Specifically, 0.5 mL plasma was mixed with 10 μL of 500 μM fenitrothion as internal standard to control the extraction yield. The plasma was extracted twice with 1 mL n-hexane for 1 min and residual lipoproteins in the combined hexane phases were precipitated with 50 μL 1 M perchloric acid, followed by centrifugation (10.000 rpm for 1 min). The hexane phase was transferred in a borosilica vial and 10 μL of DMSO was added as keeper. Hexane was evaporated at approximately 40 °C for 30 min in a Speed-Vac-Concentrator. The residue was dissolved in 90 μL of methanol:water (70/30, v/v) and 50 μL were applied to LiChrosphere 100 RP-18, 5 μm, 125 mm × 4 mm (E. Merck, Darmstadt, Germany) and eluted at a flow rate of 1 mL/min by gradient elution. […] Typically, fenitrothion was eluted after 3.3 min and chlorpyrifos after 11.5 min. The lower limit of quantification (LOQ) was 0.1 μM in plasma.
For series [6], the system named is BChE. The settings on record: cited from earlier work.
Series [7] has as its system human diethylphosphoryl-AChE. The note with it: human red blood cells in vitro, cited from earlier work.
Series [8] has as its system human red blood cell AChE. Briefly: Inhibition kinetics of human red blood cell AChE by CPO. The format is biochemical. The note with it: 11.3 nM AChE, 20 nM CPO.
From the text: The basis for the calculation of free CPO is the equation given below: [E]/[EP+EPOx]=kr/ki×[P]×(1+KD/[Ox]) E = active enzyme; EP = phosphorylated, but unaged enzyme; EPOx = complex of oxime and phosphorylated, but unaged enzyme; [EP + EPOx] is the reactivatable enzyme = AChE in vitro–AChE in vivo; kr is the first-order reactivation rate constant; KD is the dissociation constant of the complex EPOx; ki is the second-order inhibition rate constant; [P] is the oxon concentration; [Ox] is the oxime concentration.
The fraction of active test AChE upon incubation with known amounts of CPO in plasma samples was calculated discretely in 1-min increments using the following equation: E=E0−ki×(E−EP)×0.15×(CPO0−EP), with E0 and CPO0 being the AChE and total CPO concentration at t = 0 (the factor 0.15 corrects for the fraction not bound reversibly to albumin).
Series [9] in a line: Ratio CPO/CPF in plasma of CPF-poisoned patients. The format is in vivo, human. From the text:
Data were excluded when CPF and/or CPO were below the LOQs or when the time of ingestion or blood sampling was ambiguous. […] In these cases significant post-sampling reactions had to be suspected.

The nature of series [10]: Plasma CPO concentration in CPF-poisoned patients (enzyme-based assay with horse BChE). The settings on record: median (IQR).
Method: as §2, §3
CPO was determined by an enzyme-based assay as described recently [9]. In short, CPO was extracted with n-pentane and the reconstituted residue titrated with purified horse BChE, allowing an LOQ of 0.5 nM. The data were corrected for 83% recovery of CPO from plasma [9].
Series [11] concerns the target T2, RBC-AChE (Homo sapiens, UniProt P22303).
T2 construct: washed red blood cells from a healthy donor; from tissue; host or cells: haemolysate of washed red blood cells from a healthy donor
Kind of series: Inhibitory activity of patient plasma towards RBC-AChE of a healthy donor. The class given is biochemical. The note with it: EDTA-based plasma, absence of pralidoxime. On the procedure: as §1

Series [12] deals with bovine serum albumin. The note with it: pH 7.4 and 37 °C, cited from earlier work.
The subject of series [13] is bovine serum albumin. Kind of series: Hydrolysis / inactivation of CPO by serum albumin. The note with it: 20 nM CPO, 1% albumin in inhibition assay, assuming human serum albumin has similar constants as BSA. The format is biochemical.
For series [14], the system named is human red blood cell AChE. Set-up: method as in PMID 15181665. The note with it: cited from earlier work.

T1 sequence (P22303 32-617 isoform P22303-2 limits assumed): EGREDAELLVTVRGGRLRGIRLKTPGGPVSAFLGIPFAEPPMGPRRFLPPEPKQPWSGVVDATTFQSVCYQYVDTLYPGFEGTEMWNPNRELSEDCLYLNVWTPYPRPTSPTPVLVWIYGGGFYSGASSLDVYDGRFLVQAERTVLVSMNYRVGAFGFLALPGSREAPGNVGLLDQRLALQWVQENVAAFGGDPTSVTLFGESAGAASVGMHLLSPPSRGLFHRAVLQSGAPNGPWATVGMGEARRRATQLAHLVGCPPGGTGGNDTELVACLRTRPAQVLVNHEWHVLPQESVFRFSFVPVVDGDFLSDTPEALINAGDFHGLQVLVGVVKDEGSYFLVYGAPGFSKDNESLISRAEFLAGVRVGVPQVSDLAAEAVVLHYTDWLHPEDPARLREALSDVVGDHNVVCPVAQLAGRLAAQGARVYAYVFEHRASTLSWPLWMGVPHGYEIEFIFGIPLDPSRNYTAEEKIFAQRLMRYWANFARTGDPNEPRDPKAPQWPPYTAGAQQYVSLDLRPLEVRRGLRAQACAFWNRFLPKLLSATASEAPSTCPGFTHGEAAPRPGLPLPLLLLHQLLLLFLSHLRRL
Sequence of butyrylcholinesterase (BChE; EC 3.1.1.8) (P06276 29-602): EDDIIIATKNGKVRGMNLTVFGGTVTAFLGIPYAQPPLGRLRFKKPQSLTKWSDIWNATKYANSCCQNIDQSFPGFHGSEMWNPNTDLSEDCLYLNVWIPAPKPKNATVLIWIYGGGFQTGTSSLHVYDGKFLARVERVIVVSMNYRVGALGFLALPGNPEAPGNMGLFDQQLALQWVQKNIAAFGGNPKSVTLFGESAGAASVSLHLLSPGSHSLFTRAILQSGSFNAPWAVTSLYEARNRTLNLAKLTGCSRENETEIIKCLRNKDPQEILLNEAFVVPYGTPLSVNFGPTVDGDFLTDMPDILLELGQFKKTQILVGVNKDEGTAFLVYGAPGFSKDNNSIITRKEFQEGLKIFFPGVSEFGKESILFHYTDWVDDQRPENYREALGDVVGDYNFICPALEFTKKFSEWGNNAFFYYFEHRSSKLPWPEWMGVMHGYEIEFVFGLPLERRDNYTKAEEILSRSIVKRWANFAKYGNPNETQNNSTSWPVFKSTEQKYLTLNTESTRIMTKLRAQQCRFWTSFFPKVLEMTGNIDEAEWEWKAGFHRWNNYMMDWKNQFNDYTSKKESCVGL
T2 sequence (P22303 32-617 isoform P22303-2 limits assumed): as the sequence (P22303 32-617 isoform P22303-2 limits assumed) above

Take `CCOP(=S)(OCC)Oc1nc(Cl)c(Cl)cc1Cl` [CPF, Chlorpyrifos]: the Km in series [1] is approximately 1000 nM; in series [4], approximately 30 µM. For the same compound, in series [2], the “BChE activity, of normal” value is “less than 2%”. Besides, in series [3] (one patient, 70 min after CPF ingestion), the “AChE activity, of normal” value was less than 10%. The CPF plasma concentration was 2.54 (1.6–4.7) μM in series [5] (0–4 h post poisoning, median (interquartile range), n=52); 1.65 (0.7–3.2) μM in [5] (4–8 h post poisoning, median (IQR), n=67); 0.70 (0.4–1.2) μM in [5] (8–16 h post poisoning, median (IQR), n=59); 0.44 (0.3–1.5) μM in [5] (16–24 h post poisoning, median (IQR), n=30); 0.47 (0.3–1.1) μM in series [5] (24–36 h post poisoning, median (IQR), n=45); 0.66 (0.2–1.0) μM in [5] (36–60 h post poisoning, median (IQR), n=41). The CPF plasma concentration in [5] (60–84 h post poisoning, median (IQR), n=27) is 0.46 (0.2–0.8) μM; in series [5] (84–120 h post poisoning, median (IQR), n=28) it was 0.39 (0.2–0.7) μM.
Turning to `CCOP(=O)(OCC)Oc1cc(C)nc(C(C)C)n1` [diazoxon, reference compound], the “reactivity in inhibiting BChE, times less than CPO” value in [6] is 20 times.
Consider `C[n+]1ccccc1/C=N/O` [pralidoxime], for which, in series [3] (patient A, continuous pralidoxime infusion given for 5 days), the “AChE reactivation (fraction of active enzyme from reactivatable pool)” value is on record as approximately 90%. Also, in series [7], the “kr, first-order reactivation rate constant” value was 0.3 min⁻¹. Further, the pKd in [7] (read-out: KD, dissociation constant of the complex EPOx) was 3.48.
Take Chlorpyrifos oxon [CPO]: in series [6], the “reaction faster with BChE than with AChE” value is reported as “more than 2 orders of magnitude”. Besides, in series [8], the “(initial) AChE inhibition rate” value was determined as 1.35 nM/min. The “CPO/CPF × 1000” value in [9] (0–4 h post poisoning, median (IQR) of individual sample ratios) is 4.2 (1.9–9.5); in [9] (4–8 h post poisoning, median (IQR)) it was 6.8 (4.3–14.0); in series [9] (8–16 h post poisoning, median (IQR)), 17.5 (9.2–31.6); in series [9] (16–24 h post poisoning, median (IQR)), 14.2 (10.5–42.6); in series [9] (24–36 h post poisoning, median (IQR)), 28.6 (11.3–44.4); in series [9] (36–60 h post poisoning, median (IQR)), 29.2 (14.4–70.7). Moreover, the “CPO/CPF × 1000” value is reported as 37.3 (12.7–65.3) in series [9] (60–84 h post poisoning, median (IQR)) and 25.0 (15.4–53.6) in series [9] (84–120 h post poisoning, median (IQR)). The “ratio CPO/CPF, other individuals” value in series [9] (24–120 h, steady-state, high individuals) is reported as more than 0.05. In [9] (24–120 h, steady-state, low individuals), the “ratio CPO/CPF, some individuals” value was “below 0.01”. In series [9] (between 30 and 72 h), the “ratio of CPO/CPF (apparent steady-state mean)” value worked out at 0.03. The “ratio of CPO/CPF (mean)” value in series [9] (first few hours after ingestion) is 0.005. For the same compound, the “ratio of CPO/CPF” value in [9] (period between 0 and 4 h after ingestion) is listed as “less than 0.005”. The “ratio of CPO/CPF on average” value in series [9] (period between 24 and 120 h) is recorded as approximately 0.03. In addition, the CPO plasma concentration is on record as 10.1 (4.5–22.2) nM in series [10] (0–4 h post CPF poisoning, n=52); 11.9 (6.5–21.5) nM in series [10] (4–8 h post CPF poisoning, n=67); 12.7 (5.5–22.5) nM in [10] (8–16 h post CPF poisoning, n=59); 9.6 (4.1–30.1) nM in series [10] (16–24 h post CPF poisoning, n=30); 14.1 (4.7–34.5) nM in [10] (24–36 h post CPF poisoning, n=45); 16.7 (3.4–68.4) nM in series [10] (36–60 h post CPF poisoning, n=41). Besides, the CPO plasma concentration is 22.7 (2.2–59.9) nM in series [10] (60–84 h post CPF poisoning, n=27) and 7.1 (4.2–40.2) nM in series [10] (84–120 h post CPF poisoning, n=28). The “fraction of CPO capable of inhibiting AChE” value in series [11] was “roughly 2/3”. The “Vmax of CPO 'hydrolysis' by bovine serum albumin” value in [12] is listed as 0.9 nmol/min/mg protein. For the same compound, the Km in series [12] (read-out: Km of CPO 'hydrolysis' by bovine serum albumin) was 400 µM. Moreover, in series [13], the “rate of CPO inactivation by albumin” value was determined as 0.45 nM/min. Moreover, in series [14], the “ki, second-order inhibition rate constant” value was 6e+06 M⁻¹ min⁻¹.

As a reminder, the pKd is −log10 of the Kd, conventionally taken in molar units.
